The target in this assay is human EP4 receptor (Homo sapiens (Human), UniProt P35408). As to the kind of experiment: Test for antagonism of the human EP4 receptor signal (cAMP HTRF). Format: cell-based. Conditions: cells expressing hEP4, PGE2 at EC80 (0.4 nM), cAMP TR-FRET; read-out: Antagonism hEP4 IC50. The text has this: The binding of the agonist prostaglandin E2 (PGE2) to the EP4 subtype of human hPGE2-R (hEP4-R) induces the activation of membrane-bound adenylate cyclases and thus the formation of cAMP. In the presence of the phosphodiesterase inhibitor IBMX, this cAMP accumulates intracellularly and is employed in a competitive detection procedure after cell lysis. In this procedure, it competes with a fluorescence-labelled cAMP (cAMP-d2) for binding to an Eu cryptate-labelled anti-cAMP antibody. In the absence of cellular cAMP, a complex is formed between the Eu cryptate-labelled anti-cAMP antibody and the cAMP-d2 molecule, which after excitation at 337 nm makes possible an energy transfer based on FRET (fluorescence resonance energy transfer) to the cAMP-d2 tracer and leads to a long-lasting fluorescence signal (emission at 665 and 620 nm). This signal is time-resolved, i.e. measured in a suitable measuring apparatus after decay of the background fluorescence (time resolved; TR-FRET). The wave ratio determination (emission 665 nm/emission 620 nm*10000) moreover makes it possible to standardize individual measurement differences in the added amounts of the detection reagents.
human EP4 receptor, sequence (P35408 whole entry): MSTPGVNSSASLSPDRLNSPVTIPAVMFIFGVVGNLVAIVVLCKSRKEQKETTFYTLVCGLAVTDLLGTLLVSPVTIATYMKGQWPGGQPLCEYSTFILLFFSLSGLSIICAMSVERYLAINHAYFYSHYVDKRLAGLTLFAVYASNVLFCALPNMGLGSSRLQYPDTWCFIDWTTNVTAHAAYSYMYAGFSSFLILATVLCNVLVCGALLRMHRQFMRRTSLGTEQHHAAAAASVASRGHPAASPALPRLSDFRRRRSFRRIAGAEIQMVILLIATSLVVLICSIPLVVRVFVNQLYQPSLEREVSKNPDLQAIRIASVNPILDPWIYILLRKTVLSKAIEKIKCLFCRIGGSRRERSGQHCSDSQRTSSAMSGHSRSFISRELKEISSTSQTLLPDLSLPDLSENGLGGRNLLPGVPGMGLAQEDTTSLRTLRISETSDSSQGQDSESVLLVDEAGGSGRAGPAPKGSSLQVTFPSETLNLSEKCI
By means of prostaglandin E2 administration and increase in the intracellular cAMP, a lowering of the FRET signal occurs, which in the case of an antagonistic substance action increases again.
A further 20 min at room temperature later, the cell lysate is measured according to the manufacturer's instructions in a TR-FRET-suitable measuring apparatus (compare cAMP HTRF assay kit: Cisbio International 62AM6PEJ high range)
Background: In TR-FRET formats the signal depends on donor and acceptor labels being close together.

By IC50 is commonly meant the concentration that inhibits the measured activity by half.

Structures are written as SMILES.

As to `CCn1c2ccccc2c2cc(-c3nc4cc(C(=O)O)ccc4n3C[C@@H](O)COC)ccc21` [Example 134, 2-(9-Ethyl-9H-carbazol-3-yl)-1-[(2R)-2-hydroxy-3-methoxypropyl]-1H-benzimidazole-5-carboxylic acid], the IC50 worked out at 136 nM. Regarding `CCn1c2ccc(OC)cc2c2cc(-c3nc4cc(C(=O)O)ccc4n3CC3CC3)ccc21` [Example 43, 1-(Cyclopropylmethyl)-2-(9-ethyl-6-methoxy-9H-carbazol-3-yl)-1H-benzimidazole-5-carboxylic acid], the 50% inhibitory concentration (IC50) came out at 54.6 nM. Regarding `CCn1c2ccccc2c2cc(-c3nc4cc(C(=O)NS(=O)(=O)CCc5ccccc5C)ccc4n3CCOC)ccc21` [Example 57, 2-(9-Ethyl-9H-carbazol-3-yl)-1-(2-methoxyethyl)-N-{[2-(2-methylphenyl)ethyl]sulphonyl}-1H-benzimidazole-5-carboxamide], the IC50 came to 239 nM. Turning to `CCn1c2ccccc2c2cc(-c3nc4cc(C(=O)NS(=O)(=O)CCc5ccc(C(F)(F)F)cc5)ccc4n3CCOC)ccc21` [Example 20, 2-(9-Ethyl-9H-carbazol-3-yl)-1-(2-methoxyethyl)-N-({2-[4-(trifluoromethyl)phenyl]ethyl}-sulphonyl)-1H-benzimidazole-5-carboxamide], the IC50 was 683 nM. The value for `CCn1c2ccccc2c2cc(-c3nc4c(F)c(C(=O)O)ccc4n3CC3CC3)ccc21` [Example 115, 1-(Cyclopropylmethyl)-2-(9-ethyl-9H-carbazol-3-yl)-4-fluoro-1H-benzimidazole-5-carboxylic acid] was 11.6 nM.

As to `CCn1c2ccccc2c2cc(-c3nc4cc(C(=O)O)ccc4n3CCN3CCOCC3)ccc21` [Example 70, 2-(9-Ethyl-9H-carbazol-3-yl)-1-[2-(morpholin-4-yl)ethyl]-1H-benzimidazole-5-carboxylic acid], the IC50 was found to be 2460 nM. For `CCn1c2ccccc2c2cc(-c3nc4cc(-c5n[nH]c(=O)o5)ccc4n3CCOC)ccc21` [Example 106, 5-[2-(9-Ethyl-9H-carbazol-3-yl)-1-(2-methoxyethyl)-1H-benzimidazol-5-yl]-1,3,4-oxadiazol-2(3H)-one], the 50% inhibitory concentration (IC50) was 43.7 nM. Consider `CCn1c2ccccc2c2cc(-c3nc4cc(C(=O)NS(=O)(=O)c5ccc(OC)cc5)ccc4n3CCOC)ccc21` [Example 19, 2-(9-Ethyl-9H-carbazol-3-yl)-1-(2-methoxyethyl)-N-[(4-methoxyphenyl)sulphonyl]-1H-benzimidazole-5-carboxamide], for which the IC50 came out at 32.2 nM. As to `CCCn1c2ccccc2c2cc(-c3nc4cc(C(=O)O)ccc4n3CC3CC3)ccc21` [Example 120, 1-(Cyclopropylmethyl)-2-(9-propyl-9H-carbazol-3-yl)-1H-benzimidazole-5-carboxylic acid], the IC50 amounted to 63 nM. Consider `CCn1c2ccccc2c2cc(-c3nc4cc(C(=O)NS(=O)(=O)C(C)(C)C)ccc4n3CCOC)ccc21` [Example 39, N-(tert-Butylsulphonyl)-2-(9-ethyl-9H-carbazol-3-yl)-1-(2-methoxyethyl)-1H-benzimidazole-5-carboxamide], for which the 50% inhibitory concentration (IC50) worked out at 768 nM. On to `CCn1c2ccccc2c2cc(-c3nc4cc(C(=O)N5CCC5)ccc4n3CCOC)ccc21` [Example 30, Azetidin-1-yl[2-(9-ethyl-9H-carbazol-3-yl)-1-(2-methoxyethyl)-1H-benzimidazol-5-yl]methanone], for which the IC50 stood at 30.1 nM. The value for `CCn1c2ccccc2c2cc(-c3nc4cc(C(=O)O)ccc4n3CCCOC)ccc21` [Example 100, 2-(9-Ethyl-9H-carbazol-3-yl)-1-(3-methoxypropyl)-1H-benzimidazole-5-carboxylic acid] was 158 nM. For `CCn1c2ccccc2c2cc(-c3nc4cc(C(=O)N5CCOCC5)ccc4n3CC3CC3)ccc21` [Example 29, [1-(Cyclopropylmethyl)-2-(9-ethyl-9H-carbazol-3-yl)-1H-benzimidazol-5-yl](morpholin-4-yl)methanone], the concentration for half-maximal inhibition (IC50) amounted to 219 nM. As to `CCn1c2ccccc2c2cc(-c3nc4c(C)c(C(=O)O)ccc4n3CC3CC3)ccc21` [Example 9, 1-(Cyclopropylmethyl)-2-(9-ethyl-9H-carbazol-3-yl)-4-methyl-1H-benzimidazole-5-carboxylic acid], the IC50 worked out at 71.2 nM. Consider `CCn1c2ccccc2c2cc(-c3nc4cc(C(=O)O)c(OC)cc4n3CCOC)ccc21` [Example 103, 2-(9-Ethyl-9H-carbazol-3-yl)-6-methoxy-1-(2-methoxyethyl)-1H-benzimidazole-5-carboxylic acid], for which the IC50 came out at 3110 nM. As to `CCn1c2ccccc2c2cc(-c3nc4cc(C(=O)O)ccc4n3C[C@@H]3COCCO3)ccc21` [Example 139, 1-[(2R)-1,4-Dioxan-2-ylmethyl]-2-(9-ethyl-9H-carbazol-3-yl)-1H-benzimidazole-5-carboxylic acid], the concentration for half-maximal inhibition (IC50) was 252 nM. The value for `CCn1c2ccccc2c2cc(-c3nc4cc(C(=O)NS(=O)(=O)c5ccc6ccccc6c5)ccc4n3CCOC)ccc21` [Example 51, 2-(9-Ethyl-9H-carbazol-3-yl)-1-(2-methoxyethyl)-N-(2-naphthylsulphonyl)-1H-benzimidazole-5-carboxamide] was 95.5 nM; that for `CCn1c2ccccc2c2cc(-c3nc4cc(C(=O)NS(=O)(=O)CCc5ccccc5Cl)ccc4n3CCOC)ccc21` [Example 61, N-{[2-(2-Chlorophenyl)ethyl]sulphonyl}-2-(9-ethyl-9H-carbazol-3-yl)-1-(2-methoxyethyl)-1H-benzimidazole-5-carboxamide] was 167 nM; that for `CCn1c2ccccc2c2cc(-c3nc4cc(C(=O)N5CCCC5)ccc4n3CCOC)ccc21` [Example 76, [2-(9-Ethyl-9H-carbazol-3-yl)-1-(2-methoxyethyl)-1H-benzimidazol-5-yl](pyrrolidin-1-yl)-methanone] was 41.3 nM. With `CCn1c2ccc(C)cc2c2cc(-c3nc4c(C)c(C(=O)O)ccc4n3CCOC)ccc21` [Example 141, 2-(9-Ethyl-6-methyl-9H-carbazol-3-yl)-1-(2-methoxyethyl)-4-methyl-1H-benzimidazole-5-carboxylic acid], the half-maximal inhibitory concentration (IC50) is 15.3 nM. For the molecule `CCn1c2ccc(-c3nc4cc(C(=O)O)ccc4n3CCOC)cc2c2cccc(F)c21` [Example 12, 2-(9-Ethyl-8-fluoro-9H-carbazol-3-yl)-1-(2-methoxyethyl)-1H-benzimidazole-5-carboxylic acid], the concentration for half-maximal inhibition (IC50) is 10.2 nM. Consider `CCn1c2ccccc2c2cc(-c3nc4cc(C(=O)OC)ccc4n3CC3CC3)ccc21` [Example 5, Methyl 1-(cyclopropylmethyl)-2-(9-ethyl-9H-carbazol-3-yl)-1H-benzimidazole-5-carboxylate], for which the half-inhibitory concentration (IC50) is 404 nM. With `CCn1c2ccccc2c2cc(-c3nc4cc(C(=O)N5CC(O)C5)ccc4n3CC3CC3)ccc21` [Example 23, [1-(Cyclopropylmethyl)-2-(9-ethyl-9H-carbazol-3-yl)-1H-benzimidazol-5-yl](3-hydroxyazetidin-1-yl)methanone], the concentration for half-maximal inhibition (IC50) stood at 143 nM. As for `CCn1c2ccccc2c2cc(-c3nc4cc(C(=O)O)ccc4n3CCN3CCCC3)ccc21` [Example 38, 2-(9-Ethyl-9H-carbazol-3-yl)-1-[2-(pyrrolidin-1-yl)ethyl]-1H-benzimidazole-5-carboxylic acid], the half-inhibitory concentration (IC50) was 742 nM.

Regarding `CCn1c2ccccc2c2cc(-c3nc4cc(C(=O)NC)ccc4n3CCN(C)C)ccc21` [Example 73, 1-[2-(Dimethylamino)ethyl]-2-(9-ethyl-9H-carbazol-3-yl)-N-methyl-1H-benzimidazole-5-carboxamide], the half-maximal inhibitory concentration (IC50) was determined as 382 nM.

In the case of `C=CCn1c(-c2ccc3c(c2)c2ccccc2n3CC)nc2cc(C(=O)N(C)C)ccc21` [Example 85, 1-Allyl-2-(9-ethyl-9H-carbazol-3-yl)-N,N-dimethyl-1H-benzimidazole-5-carboxamide], the IC50 worked out at 1860 nM.

As for `CCn1c2ccccc2c2cc(-c3nc4cc(-c5n[nH]c(=O)o5)ccc4n3CCN(C)C)ccc21` [Example 126, 5-{1-[2-(Dimethylamino)ethyl]-2-(9-ethyl-9H-carbazol-3-yl)-1H-benzimidazol-5-yl}-1,3,4-oxadiazol-2(3H)-one], the IC50 came out at 118 nM. For `C=CCn1c(-c2ccc3c(c2)c2ccccc2n3CC)nc2cc(C(=O)NC)ccc21` [Example 88, 1-Allyl-2-(9-ethyl-9H-carbazol-3-yl)-N-methyl-1H-benzimidazole-5-carboxamide], the IC50 was 2100 nM. Regarding `CCn1c2ccccc2c2cc(-c3nc4c(F)c(C(=O)O)ccc4n3CCOC)ccc21` [Example 114, 2-(9-Ethyl-9H-carbazol-3-yl)-4-fluoro-1-(2-methoxyethyl)-1H-benzimidazole-5-carboxylic acid], the IC50 is 6.42 nM. On to `CCn1c2ccccc2c2cc(-c3nc4cc(C(=O)NS(=O)(=O)C5(C)CC5)ccc4n3CCOC)ccc21` [Example 40, 2-(9-Ethyl-9H-carbazol-3-yl)-1-(2-methoxyethyl)-N-[(1-methylcyclopropyl)sulphonyl]-1H-benzimidazole-5-carboxamide], for which the IC50 worked out at 78.3 nM. In the case of `CCn1c2ccccc2c2cc(-c3nc4cc(C(=O)O)ccc4n3CC3CC3)nc(C)c21` [Example 131, 1-(Cyclopropylmethyl)-2-(9-ethyl-1-methyl-9H-beta-carbolin-3-yl)-1H-benzimidazole-5-carboxylic acid] it was 480 nM.
